For two molecules, bulk specific gravity results are on record in US20230012374A1, “PROCESS FOR PRODUCING HERBICIDE AND INTERMEDIATE THEREOF” (KUMIAI CHEMICAL INDUSTRY CO., LTD., priority 2019, published 2023).

The nature of the data set: Bulk specific gravity of pyroxasulfone crystals. It counts as physicochemical. To be noted: crystal of pyroxasulfone.

In turn, `Cn1nc(C(F)(F)F)c(CS(=O)(=O)C2=NOC(C)(C)C2)c1OC(F)F` [Comparative Example 3-1, 3-[(5-difluoromethoxy-1-methyl-3-trifluoromethylpyrazol-4-yl)methylsulfonyl]-4,5-dihydro-5,5-dimethylisoxazole] came in with a bulk specific gravity of 0.53 g/mL.
The result for `Cn1nc(C(F)(F)F)c(CS(=O)(=O)C2=NOC(C)(C)C2)c1OC(F)F` [Example 3-1, 3-[(5-difluoromethoxy-1-methyl-3-trifluoromethylpyrazol-4-yl)methylsulfonyl]-4,5-dihydro-5,5-dimethylisoxazole] reads 1.04 g/mL.
